Assay results reported in patent publication US5134137A, “Cephalosporin antibiotics” (The Upjohn Company, priority 1990, dated 1992).
In brackets after ≈: the same amount, converted by molar mass. Where two headings read alike, the source gives them in different places.

Legend:
Assay type in all cases: cell-based
Pseudomonas aeruginosa = experiment: MIC, agar dilution, Pseudomonas aeruginosa; conditions: Pseudomonas aeruginosa, ATCC27853; strain ATCC 27853; read-out: MIC
Description: (§1) Stock solution of each test antibiotic compound were prepared to have a concentration of 2 mg. of the test compound per milliliter in sterile water of 0.1M ammonium acetate solution. The amount of each compound used was adjusted for base compound activity as calculated from the purity data for the selected batch of compound.
(§2) The dilution procedure described by Washington and Sutter [Manual of Clinical Microbiology, 3rd, Edit. (Lennett, E. H. et al, Eds.), pp. 453-458 (1980), American Society for Microbiology, Washington, D.C.] was modified so that serial concentrations of 128 to 0.0625 microgram/ml. in sterile water was obtained. Then 1.5 ml. aliquots of these test antibiotic dilution mixtures are added to 13.5 molten (50° C.) Mueller-Hinton agar. Each resulting mixture is poured into 15×100 mm, sterile Petri plates and allowed to dry at room temperature overnight.
(§3) Test bacterial cultures are maintained at -70° C. on glass beads. [See R. J. Yancey, Jr. et al, Amer. Jr. of Vet. Research, 48, No. 7, pp. 1050-1053, (1987)]. At least one bacteria-laden bead per culture is dropped into one ml. of brain heart infusion (BHI) broth for overnight culture at 37° C. in 5% V/V carbon dioxide in air atmosphere.
(§4) On the data of assay, 2 to 8 drops of the bacterial broth cultures are transferred to fresh BHI broth (1 ml.) and the mixture is incubated for 4 to 6 hours at 37° C. in a 5% V/V carbon dioxide in air atmosphere. The resulting cultures are then diluted to match a 0.5 MacFarland standard and further diluted 1:20 V/V with sterile saline solution.
(§5) A 0.001 ml. drop of the resulting mixture, containing approximately 10^3 to 10^4 colony forming units (CFU) of each test bacteria organism, is dispensed onto the surface of the test antibiotic compound test plates with a Steer's type replicator. The resulting innoculated plates are incubated 16 to 18 hours at 37° C. with a carbon dioxide atmosphere.
as §1, with “Stock solutions” for “Stock solution”
as §2, with “mm.” for “mm,”
as §2, with “for Microbiology.” for “for Microbiology,”, “15×100 mm.” for “15×100 mm,”
as §3, with “culture” for “cultures”
(§6) On the day of assay, 2 to 8 drops of the bacterial broth cultures are transferred to fresh BHI broth (1 ml.) and the mixture is incubated for 4 to 6 hours at 37° C. in a 5% V/V carbon dioxide in air atmosphere. […]

Pasteurella hemolytica = experiment: MIC (minimum inhibitory concentration), agar dilution, Pasteurella hemolytica; conditions: Pasteurella, read-out: MIC
Description: as §1, §2, §3, §4, §5
as §1, with “Stock solutions” for “Stock solution”
as §2, with “mm.” for “mm,”
as §2, with “for Microbiology.” for “for Microbiology,”, “15×100 mm.” for “15×100 mm,”
as §3, with “culture” for “cultures”
as §6

Streptococcus suis = experiment: MIC, agar dilution, Streptococcus suis; conditions: Streptococcus suis; strain 650-2; read-out: MIC
Description: as §1, §2, §3, §4, §5
as §1, with “Stock solutions” for “Stock solution”
as §2, with “mm.” for “mm,”
as §2, with “for Microbiology.” for “for Microbiology,”, “15×100 mm.” for “15×100 mm,”
as §3, with “culture” for “cultures”
as §6

Salmonella choleraesuis = experiment: MIC, agar dilution, Salmonella choleraesuis; conditions: Salmonella enterica, read-out: MIC
Description: as §1, §2, §3, §4, §5
as §1, with “Stock solutions” for “Stock solution”
as §2, with “mm.” for “mm,”
as §2, with “for Microbiology.” for “for Microbiology,”, “15×100 mm.” for “15×100 mm,”
as §3, with “culture” for “cultures”
as §6

Streptococcus agalactiae = experiment: MIC, agar dilution, Streptococcus agalactiae; conditions: Streptococcus agalactiae, read-out: MIC
Description: as §1, §2, §3, §4, §5
as §1, with “Stock solutions” for “Stock solution”
as §2, with “mm.” for “mm,”
as §2, with “for Microbiology.” for “for Microbiology,”, “15×100 mm.” for “15×100 mm,”
as §3, with “culture” for “cultures”
as §6

[1] = tested on: Streptococcus dysgalactiae; experiment: MIC, agar dilution, Streptococcus dysgalactiae; conditions: Streptococcus dysgalactiae; strain UC251; read-out: MIC
Description: as §1, §2, §3, §4, §5
as §1, with “Stock solutions” for “Stock solution”
as §2, with “mm.” for “mm,”
as §2, with “for Microbiology.” for “for Microbiology,”, “15×100 mm.” for “15×100 mm,”
as §3, with “culture” for “cultures”
as §6

Enterococcus faecalis = experiment: MIC, agar dilution, Enterococcus faecalis; conditions: Enterococcus faecalis; strain UC694; read-out: MIC
Description: as §1, with “Stock solutions” for “Stock solution”
as §2, §3, §4, §5, §1
as §2, with “mm.” for “mm,”
as §2, with “for Microbiology.” for “for Microbiology,”, “15×100 mm.” for “15×100 mm,”
as §3, with “culture” for “cultures”
as §6

Corynebacterium pyogenes = experiment: MIC, agar dilution, Corynebacterium pyogenes; conditions: strain 213-2; read-out: MIC
Description: as §1, §2, §3, §4, §5
as §1, with “Stock solutions” for “Stock solution”
as §2, with “mm.” for “mm,”
as §2, with “for Microbiology.” for “for Microbiology,”, “15×100 mm.” for “15×100 mm,”
as §3, with “culture” for “cultures”
as §6

Pasteurella multocida = experiment: MIC, agar dilution, Pasteurella multocida; conditions: Pasteurella multocida; strain UC9581; read-out: MIC
Description: as §1, §2, §3, §4, §5
as §1, with “Stock solutions” for “Stock solution”
as §2, with “mm.” for “mm,”
as §2, with “for Microbiology.” for “for Microbiology,”, “15×100 mm.” for “15×100 mm,”
as §3, with “culture” for “cultures”
as §6

Salmonella typhimurium = experiment: MIC, agar dilution, Salmonella typhimurium; conditions: Salmonella enterica, read-out: MIC
Description: as §1, §2, §3, §4, §5
as §1, with “Stock solutions” for “Stock solution”
as §2, with “mm.” for “mm,”
as §2, with “for Microbiology.” for “for Microbiology,”, “15×100 mm.” for “15×100 mm,”
as §3, with “culture” for “cultures”
as §6

Streptococcus uberis = experiment: MIC, agar dilution, Streptococcus uberis; conditions: Streptococcus uberis, read-out: MIC
Description: as §1, §2, §3, §4, §5
as §1, with “Stock solutions” for “Stock solution”
as §2, with “mm.” for “mm,”
as §2, with “for Microbiology.” for “for Microbiology,”, “15×100 mm.” for “15×100 mm,”
as §3, with “culture” for “cultures”
as §6

Streptococcus bovis = experiment: MIC, agar dilution, Streptococcus bovis; conditions: Streptococcus equinus; strain UC6281; read-out: MIC
Description: as §1, §2, §3, §4, §5
as §1, with “Stock solutions” for “Stock solution”
as §2, with “mm.” for “mm,”
as §2, with “for Microbiology.” for “for Microbiology,”, “15×100 mm.” for “15×100 mm,”
as §3, with “culture” for “cultures”
as §6

Enterococcus faecium = experiment: MIC, agar dilution, Enterococcus faecium; conditions: Enterococcus faecium; strain UC241; read-out: MIC
Description: as §1, with “Stock solutions” for “Stock solution”
as §2, §3, §4, §5, §1
as §2, with “mm.” for “mm,”
as §2, with “for Microbiology.” for “for Microbiology,”, “15×100 mm.” for “15×100 mm,”
as §3, with “culture” for “cultures”
as §6

Escherichia coli = experiment: MIC, agar dilution, Escherichia coli; conditions: Escherichia coli, read-out: MIC
Description: as §1, §2, §3, §4, §5
as §1, with “Stock solutions” for “Stock solution”
as §2, with “mm.” for “mm,”
as §2, with “for Microbiology.” for “for Microbiology,”, “15×100 mm.” for “15×100 mm,”
as §3, with “culture” for “cultures”
as §6

[2] = tested on: Bordetella bronchiseptica; experiment: MIC, agar dilution, Bordetella bronchiseptica; conditions: Bordetella bronchiseptica; strain UC6313; read-out: MIC
Description: as §1, §2, §3, §4, §5
as §1, with “Stock solutions” for “Stock solution”
as §2, with “mm.” for “mm,”
as §2, with “for Microbiology.” for “for Microbiology,”, “15×100 mm.” for “15×100 mm,”
as §3, with “culture” for “cultures”
as §6

Staphylococcus aureus = experiment: MIC, agar dilution, Staphylococcus aureus; conditions: Staphylococcus aureus, read-out: MIC
Description: as §1, §2, §3, §4, §5
as §1, with “Stock solutions” for “Stock solution”
as §2, with “mm.” for “mm,”
as §2, with “for Microbiology.” for “for Microbiology,”, “15×100 mm.” for “15×100 mm,”
as §3, with “culture” for “cultures”
as §6

Micrococcus luteus = experiment: MIC, agar dilution, Micrococcus luteus; conditions: Micrococcus luteus; strain UC130; read-out: MIC
Description: as §1, §2, §3, §4, §5
as §1, with “Stock solutions” for “Stock solution”
as §2, with “mm.” for “mm,”
as §2, with “for Microbiology.” for “for Microbiology,”, “15×100 mm.” for “15×100 mm,”
as §3, with “culture” for “cultures”
as §6

[3] = CHOLERAESUIS / UC6073, strain UC6073
[4] = CHOLERAESUIS / UC6077, strain UC6077
[5] = TYPHIMURIUM / UC6162, strain UC6162
[6] = TYPHIMURIUM / UC6164, strain UC6164

| Compound | MIC (Pseudomonas aeruginosa) [µg/mL] | MIC (Pasteurella hemolytica; strain UC6531) [µg/mL] | MIC (Pasteurella hemolytica; strain UC6532) [µg/mL] | MIC (Pasteurella hemolytica; strain UC9582) [µg/mL] | MIC (Streptococcus suis) [µg/mL] | MIC (Salmonella choleraesuis; [3]) [µg/mL] | MIC (Salmonella choleraesuis; [4]) [µg/mL] | MIC (Streptococcus agalactiae; strain UC3947) [µg/mL] | MIC (Streptococcus agalactiae; strain UC6892) [µg/mL] | MIC [1] [µg/mL] | MIC (Enterococcus faecalis) [µg/mL] | MIC (Corynebacterium pyogenes) [µg/mL] | MIC (Pasteurella multocida) [µg/mL] | MIC (Salmonella typhimurium; [5]) [µg/mL] | MIC (Salmonella typhimurium; [6]) [µg/mL] | MIC (Streptococcus uberis; strain UC3946) [µg/mL] | MIC (Streptococcus uberis; strain UC6159) [µg/mL] | MIC (Streptococcus bovis) [µg/mL] | MIC (Enterococcus faecium) [µg/mL] | MIC (Escherichia coli; strain UC3784) [µg/mL] | also measured |
| --- | --- | --- | --- | --- | --- | --- | --- | --- | --- | --- | --- | --- | --- | --- | --- | --- | --- | --- | --- | --- | --- |
| CO/N=C(\C(=O)N[C@@H]1C(=O)N2C(C(=O)O)=C(CSSc3ccccc3)CS[C@H]12)c1csc(N)n1 [Example 15] | > 32 | 0.13 (≈ 0.242 µM) | 0.25 (≈ 0.465 µM) | 0.25 (≈ 0.465 µM) | ≤ 0.06 | 32 (≈ 59.5 µM) | 32 (≈ 59.5 µM) | ≤ 0.06 | ≤ 0.06 | ≤ 0.06 | > 32 | 4 (≈ 7.44 µM) | ≤ 0.06 | 16 (≈ 29.8 µM) | 8 (≈ 14.9 µM) | ≤ 0.06 | 16 (≈ 29.8 µM) | ≤ 0.06 | > 32 | 8 (≈ 14.9 µM) | MIC (Escherichia coli; strain UC6720): 8 µg/mL (≈ 14.9 µM); MIC (Escherichia coli; strain UC9670): 8 µg/mL (≈ 14.9 µM); MIC [2]: > 32 µg/mL; MIC (Staphylococcus aureus; strain UC6093): 2 µg/mL (≈ 3.72 µM); MIC (Staphylococcus aureus; strain UC6097): 2 µg/mL (≈ 3.72 µM); MIC (Staphylococcus aureus; strain UC9203): 2 µg/mL (≈ 3.72 µM); MIC (Micrococcus luteus): ≤ 0.06 µg/mL |
| CO/N=C(\C(=O)N[C@@H]1C(=O)N2C(C(=O)O)=C(CSSCc3ccco3)CS[C@H]12)c1csc(N)n1 [Example 16] | > 32 | 0.25 (≈ 0.462 µM) | 0.13 (≈ 0.24 µM) | 0.13 (≈ 0.24 µM) | ≤ 0.06 | 16 (≈ 29.5 µM) | 32 (≈ 59.1 µM) | ≤ 0.06 | ≤ 0.06 | ≤ 0.06 | > 32 | 0.13 (≈ 0.24 µM) | 1 (≈ 1.85 µM) | 16 (≈ 29.5 µM) | 8 (≈ 14.8 µM) | ≤ 0.06 | 4 (≈ 7.38 µM) | ≤ 0.06 | > 32 | 4 (≈ 7.38 µM) | MIC (Escherichia coli; strain UC6720): 8 µg/mL (≈ 14.8 µM); MIC (Escherichia coli; strain UC9670): 4 µg/mL (≈ 7.38 µM); MIC [2]: > 32 µg/mL; MIC (Staphylococcus aureus; strain UC6093): 1 µg/mL (≈ 1.85 µM); MIC (Staphylococcus aureus; strain UC6097): 2 µg/mL (≈ 3.69 µM); MIC (Staphylococcus aureus; strain UC9203): 1 µg/mL (≈ 1.85 µM); MIC (Micrococcus luteus): ≤ 0.06 µg/mL |
